# Laboratory results: patent publication US10765682B2 (LAM Therapeutics, Inc., priority 2014, dated 2020)
# Tested on: Yulac614 melanoma cells
# Assay: Yulac614 cell viability (CellTiter-Glo), drug library screen and 10 point validation with/without vemurafenib
# Description: Duplicate drug-spotted plates were prepared and to them were added Yulac614 cells which were pre-treated with either DMSO (0.01% final) or vemurafenib (6 μM final). The Yulac614 cells were grown in OptiMEM (Life Technologies) containing 5% FBS (Sigma Aldrich F2442-500ML, Lot 12D370) Penicillin/Streptomycin (100×) (CellGro Ref 30-002). 30 uL of cells were dispensed per well using a Multidrop Combi (Thermo Fisher Scientific) to give a final cell density of 2,000 cells per well.
# Plates were incubated for 72 h at 37° C. under an atmosphere of 5% CO2 in a humidified incubator. Cell viability was determined with CellTiter-Glo® luminescence assay (Promega) as per the manufacturer's instructions. Viability was expressed as a percentage of control (DMSO) cells. The viability of the library drug alone was compared to the library drug+vemurafenib and significant combinations were identified.
# 72 hours after compound addition relative cell viability was determined by CellTiter-Glo® luminescence assay (Promega) as per the manufacturer's instructions, and values were expressed as a percentage relative to vehicle (DMSO) treated control cells (set to 100%).
compound,measurement,value
"Cc1cccc(/C=N/Nc2cc(N3CCOCC3)nc(OCCc3ccccn3)n2)c1 [apilimod, (E)-4-(6-(2-(3-methylbenzylidene)hydrazinyl)-2-(2-(pyridin-2-yl)ethoxy)pyrimidin-4-yl)morpholine]",IC20,500 nM
